In article PMC11642016 (International Journal of Molecular Sciences, 2024):
“And” between values parts separate entries of the source, which are not always exact repeats. Equal entries are not always repeated. Where two headings read alike, the source gives them in different places.

Legend:
PANC-1 and A2058 cells = test system: PANC-1 and A2058 cells; parameters: method as in PMID 35455465; conditions: 24 h exposure time; cited from earlier work
PANC-1 cells = experiment: CellTiter-Glo luminescent cell viability assay, PANC-1; conditions: for PANC-1 Cell viability (% of controll) / Cell Viability (% of Control) 2.8 µM / Cell Viability (% of Control) 8.3 µM / Cell Viability (% of Control) 25 µM: 72 h; for PANC-1 Cell viability (% of controll): dose–response, individual replicates; for Cell Viability (% of Control) 2.8 µM / Cell Viability (% of Control) 8.3 µM / Cell Viability (% of Control) 25 µM: PANC-1, mean ± SD, n = 2
[1] = test system: non-tumorous primary fibroblast cells; experiment: CellTiter-Glo luminescent cell viability assay, primary fibroblasts; conditions: for Primer fibroblast Cell viability (% of controll): 72 h, dose–response, individual replicates
Fadu cells = experiment: CellTiter-Glo luminescent cell viability assay, Fadu; conditions: for Fadu Cell viability (% of controll) / Cell Viability (% of Control) 2.8 µM / Cell Viability (% of Control) 8.3 µM / Cell Viability (% of Control) 25 µM: 72 h; for Fadu Cell viability (% of controll): dose–response, individual replicates; for Cell Viability (% of Control) 2.8 µM / Cell Viability (% of Control) 8.3 µM / Cell Viability (% of Control) 25 µM: Fadu, mean ± SD, n = 2
[2] = test system: PANC-1, Fadu, A2058 and EBC-1 cell lines; parameters: method as in PMID 35455465; conditions: 10 µM; cited from earlier work

NCC#Cc1ccc(CN2C(=O)C3=C(CCN(Cc4ccc(-n5cc(-[c-]6cccc6)nn5)cc4)C3)N3CCN=C23)cc1.[Fe+2].c1cc[cH-]c1 [I/A, reference compound]
apoptosis induction (PANC-1 and A2058 cells): far more efficient in apoptosis induction than ONC201 | PANC-1 Cell viability (% of controll) (PANC-1 cells; 0.7 μM): 106 % of controll and 102 % of controll and 107 % of controll | PANC-1 Cell viability (% of controll) (PANC-1 cells; 1 μM): 109 % of controll and 116 % of controll and 115 % of controll | PANC-1 Cell viability (% of controll) (PANC-1 cells; 1.5 μM): 110 % of controll and 105 % of controll and 115 % of controll | PANC-1 Cell viability (% of controll) (PANC-1 cells; 2.3 μM): 109 % of controll and 107 % of controll and 111 % of controll | PANC-1 Cell viability (% of controll) (PANC-1 cells; 3.4 μM): 108 % of controll and 109 % of controll and 112 % of controll | PANC-1 Cell viability (% of controll) (PANC-1 cells; 5.1 μM): 99 % of controll and 97 % of controll and 119 % of controll | PANC-1 Cell viability (% of controll) (PANC-1 cells; 7.7 μM): 93 % of controll and 79 % of controll and 109 % of controll | PANC-1 Cell viability (% of controll) (PANC-1 cells; 17.3 μM): 0 % of controll and 2 % of controll and 1 % of controll | PANC-1 Cell viability (% of controll) (PANC-1 cells; 26 μM): 0 % of controll | Cell Viability (% of Control) 2.8 µM (PANC-1 cells; first-set screening): 108 ± 4 % of Control | Cell Viability (% of Control) 2.8 µM (PANC-1 cells; second-set screening): 108 ± 4 % of Control | Cell Viability (% of Control) 8.3 µM (PANC-1 cells; first-set screening): 39 ± 7 % of Control | Cell Viability (% of Control) 8.3 µM (PANC-1 cells; second-set screening): 39 ± 7 % of Control | Cell Viability (% of Control) 25 µM (PANC-1 cells; first-set screening): 0 ± 0 % of Control | Cell Viability (% of Control) 25 µM (PANC-1 cells; second-set screening): 0 ± 0 % of Control | Selectivity Index (SI) Fibroblast/PANC-1 (PANC-1 cells; ratio of mean best-fit IC50 for primary fibroblasts and best-fit IC50 for PANC-1): 1.4 | IC50 (PANC-1 cells; read-out: IC50 Value ± SEM PANC-1, 72 h treatment, best-fit values, n = 3): 10.7 ± 0.31 µM | IC50 (PANC-1 cells; read-out: PANC-1 IC50 values, Mean, mean of independently fitted replicate IC50 values (Supplement S.6)): 10.6 µM | IC50 (PANC-1 cells; read-out: PANC-1 IC50 values, individual replicates n1-n3, IC50 independently determined for each replicate measurement (Supplement S.6)): 11.5 µM and 10.3 µM and 10.1 µM | Primer fibroblast Cell viability (% of controll) ([1]; 0.7 μM): 96 % of controll and 98 % of controll and 99 % of controll | Primer fibroblast Cell viability (% of controll) ([1]; 1 μM): 100 % of controll and 103 % of controll and 99 % of controll | Primer fibroblast Cell viability (% of controll) ([1]; 1.5 μM): 102 % of controll and 105 % of controll and 104 % of controll | Primer fibroblast Cell viability (% of controll) ([1]; 2.3 μM): 102 % of controll (2×) and 104 % of controll | Primer fibroblast Cell viability (% of controll) ([1]; 3.4 μM): 104 % of controll (2×) and 107 % of controll | Primer fibroblast Cell viability (% of controll) ([1]; 5.1 μM): 107 % of controll and 109 % of controll and 98 % of controll | Primer fibroblast Cell viability (% of controll) ([1]; 7.7 μM): 115 % of controll and 118 % of controll and 109 % of controll | Primer fibroblast Cell viability (% of controll) ([1]; 17.3 μM): 8 % of controll and 42 % of controll and 24 % of controll | Primer fibroblast Cell viability (% of controll) ([1]; 26 μM): 0 % of controll | IC50 ([1]; read-out: IC50 Value ± SEM Primary Fibroblast, 72 h treatment, best-fit values, n = 3): 14.9 ± 0.46 µM | IC50 ([1]; read-out: Primary fibroblast IC50 values, Mean, mean of independently fitted replicate IC50 values (Supplement S.6), ONC201 value mathematically estimated from inflection point): 15.2 µM | IC50 ([1]; read-out: Primary fibroblast IC50 values, individual replicates n1-n3, IC50 independently determined for each replicate (Supplement S.6), ONC201 value mathematically estimated from inflection point, viability stayed above 50%): 13.9 µM and 14.9 µM and 16.8 µM | Fadu Cell viability (% of controll) (Fadu cells; 0.7 μM): 111 % of controll and 115 % of controll and 108 % of controll | Fadu Cell viability (% of controll) (Fadu cells; 1 μM): 110 % of controll and 112 % of controll and 109 % of controll | Fadu Cell viability (% of controll) (Fadu cells; 1.5 μM): 107 % of controll and 108 % of controll and 109 % of controll | Fadu Cell viability (% of controll) (Fadu cells; 2.3 μM): 109 % of controll (2×) and 104 % of controll | Fadu Cell viability (% of controll) (Fadu cells; 3.4 μM): 104 % of controll and 109 % of controll and 110 % of controll | Fadu Cell viability (% of controll) (Fadu cells; 5.1 μM): 105 % of controll and 106 % of controll and 102 % of controll | Fadu Cell viability (% of controll) (Fadu cells; 7.7 μM): 99 % of controll and 86 % of controll and 82 % of controll | Fadu Cell viability (% of controll) (Fadu cells; 17.3 μM): 5 % of controll and 0 % of controll and 1 % of controll | Fadu Cell viability (% of controll) (Fadu cells; 26 μM): 0 % of controll | Cell Viability (% of Control) 2.8 µM (Fadu cells; first-set screening): 105 ± 9 % of Control | Cell Viability (% of Control) 2.8 µM (Fadu cells; second-set screening): 105 ± 9 % of Control | Cell Viability (% of Control) 8.3 µM (Fadu cells; first-set screening): 66 ± 24 % of Control | Cell Viability (% of Control) 8.3 µM (Fadu cells; second-set screening): 66 ± 24 % of Control | Cell Viability (% of Control) 25 µM (Fadu cells; first-set screening): 0 ± 0 % of Control | Cell Viability (% of Control) 25 µM (Fadu cells; second-set screening): 0 ± 0 % of Control | Selectivity Index (SI) Fibroblast/Fadu (Fadu cells; ratio of mean best-fit IC50 for primary fibroblasts and best-fit IC50 for Fadu): 1.5 | IC50 (Fadu cells; read-out: Fadu IC50 values, Mean, mean of independently fitted replicate IC50 values (Supplement S.6)): 10 µM | IC50 (Fadu cells; read-out: Fadu IC50 values, individual replicates n1-n3, IC50 independently determined for each replicate measurement (Supplement S.6)): 11.2 µM and 9.27 µM and 9.61 µM | IC50 (Fadu cells; read-out: IC50 Value ± SEM Fadu, 72 h treatment, best-fit values, n = 3): 10 ± 0.23 µM | viable cells after treatment in colony formation assays [2]: no viable cells could be observed
